# Data reported in patent US9809602B2, “Compounds for treating viral infections” (INSTITUT PASTEUR KOREA, priority 2014, dated 2017).
# System: genotype 1/2 chimeric cell culture derived HCV (HCVcc)
# Test: Genotype 1/2 chimeric HCVcc assay (nano-luciferase, HCV replication)
# Assay type: cell-based
# Details: Hepatitis C virus
# Protocol: Naïve Huh-7.5 target cells were plated at 2400 cells/well in 25 μL of culture media in 384-well plates (Greiner bio-one, μ clear black). After overnight incubation, compounds serially diluted in 10 μL of cell culture media were added. After 2 h compound treatment, cells were inoculated with 40 μL of genotype 1/2 chimeric cell culture derived HCV (HCVcc) which express structural proteins of an HCV genotype 1a isolate (TN accession number EF621489) and non-structural proteins of HCV genotype 2a (JFH-1) with nano-luciferase reporter. At 72 h post infection, nano-luciferase activity (Nano-Glo™, Promega) and cellular ATP (Cell titer-Glo™, Promega) were measured as a marker for HCV replication and cytotoxicity, respectively. EC50 and CC50 were calculated by non-linear regression analyzing using GraphPad Prism (GraphPad Software).
row,Compound,EC50
1,N#Cc1cc(NC(=O)CCCN2CCC(N3CCCCC3)CC2)ccc1-c1ccc(C(F)(F)F)cc1 [Compound 1159],100 to 1000 nM
2,O=C(NCCCN1CCC(N2CCCCC2)CC1)c1ccc(Oc2ccccc2)cc1 [Compound 1013],100 to 1000 nM
3,O=C(NCCCN1CCC(N2CCCCC2)CC1)c1ccc(-c2ccccc2C(F)(F)F)cc1 [Compound 1028],100 to 1000 nM
4,O=C(NCCCN1CCC(N2CCCCC2)CC1)c1ccc(-c2ccc(Cl)cc2C(F)(F)F)cc1 [Compound 1136],100 to 1000 nM
5,O=C(NCCCN1CCC(N2CCCCC2)CC1)c1ccc(-c2ccc(F)cc2Cl)cc1 [Compound 1132],100 to 1000 nM
6,O=C(NCCCN1CCC(N2CCCCC2)CC1)c1ccc(-c2ccc3c(c2)OCO3)cc1 [Compound 1130],100 to 1000 nM
7,O=C(NCCCN1CCN(C(=O)C2CCCCC2)CC1)c1ccc(Oc2ccccc2)cc1 [Compound 1038],> 10000 nM
8,O=C(c1ccc(Oc2ccccc2)cc1)N1CCC(CN2CCC(N3CCCCC3)CC2)C1 (centres unmarked) [Compound 1089],1000 to 10000 nM
9,O=C(NCCCN1CCC(N2CCCCC2)CC1)c1ccc(Oc2ccc(Br)cc2)cc1 [Compound 1034],1000 to 10000 nM
10,O=C(CCCN1CCC(N2CCCCC2)CC1)Nc1ccc(-c2ccc(C(F)(F)F)cc2)nc1 [Compound 1116],100 to 1000 nM
11,Cc1ccc(-c2ccc(S(=O)(=O)NCCCN3CCC(N4CCCCC4)CC3)cc2)cc1 [Compound 1098],100 to 1000 nM
12,O=C(NCCCN1CCC(N2CCCCC2)CC1)c1ccc(-c2ccc(F)cc2)cc1 [Compound 1020],100 to 1000 nM
13,O=C(NCCCN1CCC(N2CCOCC2)CC1)c1ccc(Oc2ccccc2)cc1 [Compound 1050],1000 to 10000 nM
14,O=C(NC1CC(N2CCC(N3CCCCC3)CC2)C1)c1ccc(Oc2ccccc2)cc1 (centres unmarked) [Compound 1059],1000 to 10000 nM
15,O=C(c1ccc(Oc2ccccc2)cc1)N1CCC(C(=O)N2CCC(N3CCCCC3)CC2)C1 (centres unmarked) [Compound 1054],> 10000 nM
16,N#Cc1ccc(Oc2ccc(C(=O)NCCCN3CCC(N4CCCCC4)CC3)cc2)cc1 [Compound 1035],> 10000 nM
17,O=C(NCCCN1CCC(N2CCCCC2)CC1)c1ccc(-c2ccc(OC(F)(F)F)cc2)cc1 [Compound 1119],100 to 1000 nM
18,O=C(NCCCN1CCC(N2CCCCC2)CC1)c1ccc(-c2ccc(C(F)(F)F)cn2)cc1 [Compound 1100],100 to 1000 nM

# Same assay, conditions: Hepatitis C virus, Huh7.5, 72 h
row,Compound,EC50
1,CCOC(=O)c1c(NC(=O)NCc2c(Br)sc3c2CCN(C(C)C)C3)sc2c1CCCC2 [Compound 200],< 100 nM
2,COC(=O)c1c(NC(=O)NCc2c(Br)sc3c2CCNC3)sc2c1CCCC2 [Compound 128],< 100 nM
3,CCN1CCc2c(sc(Br)c2CNC(=O)Nc2sc3c(c2C(=O)OC(C)(C)C)CCCCC3)C1 [Compound 280],< 100 nM
4,CCOC(=O)c1c(NC(=O)NCc2c(C(F)(F)F)sc3c2CCN(C)C3)sc2c1CCCC2 [Compound 197],< 100 nM
5,Cc1sc(NC(=O)NCc2c(-n3cccc3)sc3c2CCN(C)C3)c(C(=O)OC(C)C)c1C [Compound 196],< 100 nM
6,CC(C)OC(=O)c1c(NC(=O)NCc2c(Br)sc3c2CCN(C)C3)sc2c1CCCC2 [Compound 172],< 100 nM
7,CC1CCCc2sc(NC(=O)NCc3c(-n4cccc4)sc4c3CCN(C)C4)c(C(=O)OC(C)(C)C)c21 (centres unmarked) [Compound 291],< 100 nM
8,CC1CCCc2sc(NC(=O)NCc3c(C(F)(F)F)sc4c3CCNC4)c(C(=O)OC(C)(C)C)c21 (centres unmarked) [Compound 265],< 100 nM
9,O=C(NCc1c(C(F)(F)F)sc2c1CCNC2)Nc1sc2c(c1C(=O)OC1CCOCC1)CCCC2 [Compound 330],< 100 nM
10,COc1sc2c(c1CNC(=O)Nc1sc3c(c1C(=O)OC(C)(C)C)CCCC3)CCNC2 [Compound 126],< 100 nM
11,CCOC(=O)c1c(NC(=O)NCc2c(-n3cccc3)sc3c2CCN(CC)C3)sc2c1CCCC2 [Compound 2],< 100 nM
12,CCOC(=O)c1c(NC(=O)NCc2c(-n3cccc3)sc3c2CCN(CC)C3)sc(C)c1-c1ccc(F)cc1 [Compound 42],< 100 nM
13,CC(C)(C)OC(=O)c1c(NC(=O)NCc2c(-c3ccco3)sc3c2CCNC3)sc2c1CCCC2 [Compound 340],< 100 nM
14,CN1CCN(C(=O)c2c(NC(=O)NCc3c(-n4cccc4)sc4c3CCNC4)sc3c2CCCC3)CC1 [Compound 84],1000 to 10000 nM
15,CCOC(=O)c1c(NC(=O)NCc2c(Br)sc3c2CCNC3)sc(C)c1C [Compound 133],< 100 nM
16,CCN1CCc2c(sc(C(F)(F)F)c2CNC(=O)Nc2sc(C)c(C)c2C(=O)OC(C)C)C1 [Compound 296],< 100 nM
17,CC(C)(C)OC(=O)c1c(NC(=O)NCc2c(-n3cccc3)sc3c2CCNC3)sc2c1CCCCC2 [Compound 302],< 100 nM
18,CC(C)(C)OC(=O)c1c(NC(=O)NCc2c(C(F)(F)F)sc3c2CCNC3)sc2c1CCC2 [Compound 244],< 100 nM
19,Cc1sc(NC(=O)NCc2c(Br)sc3c2CCNC3)c(C(=O)OC(C)(C)C)c1C [Compound 138],< 100 nM
20,O=C(NCc1c(-c2ccoc2)sc2c1CCNC2)Nc1sc2c(c1C(=O)OC1CCCC1)CCCC2 [Compound 344],< 100 nM
21,Cc1ccccc1-c1sc2c(c1CNC(=O)Nc1sc3c(c1C(=O)OC(C)(C)C)CCCC3)CCNC2 [Compound 250],100 to 1000 nM
22,CN1CCc2c(sc(-n3cccc3)c2CNC(=O)Nc2sc3c(c2C(=O)OC(C)(C)C)CCC3)C1 [Compound 298],< 100 nM
23,Cc1sc(NC(=O)NCc2c(C(F)(F)F)sc3c2CCNC3)c(C(=O)OC(C)(C)C)c1C [Compound 137],< 100 nM
24,CCN1CCc2c(sc(-n3cccc3)c2CNC(=O)Nc2sc3c(c2C(=O)NN2CCN(C)CC2)CCCC3)C1 [Compound 253],100 to 1000 nM
25,CN(C)c1cccc(-c2sc3c(c2CNC(=O)Nc2sc4c(c2C(=O)OC(C)(C)C)CCCC4)CCNC3)c1 [Compound 230],1000 to 10000 nM
26,CCOC(=O)c1c(NC(=O)NCc2c(C(F)(F)F)sc3c2CCNC3)sc2c1CCCC2 [Compound 96],< 100 nM
27,CC(C)(C)OC(=O)c1c(NC(=O)NCc2c(-c3ccc(F)nc3)sc3c2CCNC3)sc2c1CCCC2 [Compound 309],< 100 nM

row,Compound,EC50
1,CC(C)(C)OC(=O)c1c(NC(=O)NCc2c(-c3ccc(F)cc3Cl)sc3c2CCNC3)sc2c1CCCC2 [Compound 286],100 to 1000 nM
2,CCOC(=O)c1c(NC(=O)NCc2c(Br)sc3c2CCNC3)sc2c1CC(C)CC2 (centres unmarked) [Compound 193],< 100 nM
3,Cc1c(CNC(=O)Nc2sc3c(c2C(=O)OC(C)(C)C)CCCC3)csc1CN(C)C [Compound 189],< 100 nM
4,CC(C)(C)OC(=O)c1c(NC(=O)NCc2c(-n3cccc3)sc3c2CCN(C2CCC2)C3)sc2c1CCCC2 [Compound 260],< 100 nM
5,CCN1CCc2c(sc(Br)c2CNC(=O)Nc2sc3c(c2C(=O)OC(C)(C)C)CCCC3)C1 [Compound 111],< 100 nM
6,CC(C)(C)OC(=O)c1c(NC(=O)NCc2c(-c3ccc(O)cc3)sc3c2CCNC3)sc2c1CCCC2 [Compound 256],100 to 1000 nM
7,CC(C)(C)OC(=O)c1c(NC(=O)NCc2c(-c3cncc(F)c3)sc3c2CCNC3)sc2c1CCCC2 [Compound 248],< 100 nM
8,CCOC(=O)c1c(NC(=O)NCc2c(-n3cccc3)sc3c2CCOC3)sc2c1CCCC2 [Compound 48],< 100 nM
9,CCN1CCc2c(sc(C(F)(F)F)c2CNC(=O)Nc2sc3c(c2C(=O)OC(C)(C)C)CCCC3)C1 [Compound 119],< 100 nM
10,CCOC(=O)c1c(NC(=O)NCc2cc(CN(C)C)ccc2F)sc2c1CCCC2 [Compound 108],100 to 1000 nM
11,CC(C)(C)OC(=O)c1c(NC(=O)NCc2c(-c3cnc(Sc4ccccc4)nc3)sc3c2CCNC3)sc2c1CCCC2 [Compound 323],100 to 1000 nM
12,CC(C)(C)OC(=O)c1c(NC(=O)NCc2c(-c3ccccc3)sc3c2CCNC3)sc2c1CCCC2 [Compound 130],< 100 nM
13,CCOC(=O)c1c(NC(=O)NCc2c(C(F)(F)F)sc3c2CCNC3)sc2c1CCOC2 [Compound 150],< 100 nM
14,CCN1CCc2c(sc(C(F)(F)F)c2CNC(=O)Nc2sc3c(c2C(=O)OC(C)(C)C)CCC3)C1 [Compound 254],< 100 nM
15,CN1CCc2c(sc(-n3cccc3)c2CNC(=O)Nc2sc3c(c2C(=O)OC(C)(C)C)CCCCC3)C1 [Compound 301],< 100 nM
16,CC1CCc2c(sc(NC(=O)NCc3c(-n4cccc4)sc4c3CCN(C)C4)c2C(=O)OC(C)(C)C)C1 (centres unmarked) [Compound 210],< 100 nM
17,CCOC(=O)c1c(NC(=O)NCc2c(-n3c(C)ccc3C)sc3c2CCN(CC)C3)sc2c1CCCC2 [Compound 51],< 100 nM
18,CCOC(=O)c1c(NC(=O)NCc2c(C(F)(F)F)sc3c2CCN(C(=O)[C@@H](N)C(C)C)C3)sc2c1CCCC2 [Compound 345],< 100 nM
19,CC(C)(C)OC(=O)c1c(NC(=O)NCc2c(C(F)(F)F)sc3c2CCNC3)sc2c1CCC1(C2)OCCO1 [Compound 311],< 100 nM
20,CCOC(=O)c1c(NC(=O)C(=O)NCc2c(-n3cccc3)sc3c2CCN(CC)C3)sc2c1CCCC2 [Compound 78],< 100 nM
21,CCOC(=O)c1c(NC(=O)NCc2c(-n3cccc3)sc3c2CCN(C)C3)sc2ccccc12 [Compound 66],< 100 nM
22,Cc1sc(NC(=O)NCc2c(-c3cccc(F)c3)sc3c2CCNC3)c(C(=O)OC(C)(C)C)c1C [Compound 364],< 100 nM
23,CCOC(=O)c1c(NC(=O)NCc2c(-c3ccoc3)sc3c2CCNC3)sc2c1CCCC2 [Compound 339],< 100 nM
24,CCOC(=O)c1c(NC(=O)NC(C)c2c(-n3cccc3)sc3c2CCN(CC)C3)sc2c1CCCC2 (centres unmarked) [Compound 1],100 to 1000 nM
25,CCOC(=O)c1c(NC(=O)NCc2c(C(F)(F)F)sc3c2CCN(C(=O)[C@H](C)N)C3)sc2c1CCCC2 [Compound 327],< 100 nM
26,CCOC(=O)c1c(NC(=O)NCc2c(-n3cccc3)sc(C(=O)N(C)C)c2C)sc2c1CCCC2 [Compound 52],100 to 1000 nM
